13 molecules from patent US9637483B2, “Heterocyclic compound” (TAKEDA PHARMACEUTICAL COMPANY LIMITED, priority 2013, dated 2017) can be followed below.

Common to all, as to format: biochemical
One assay concerns the target T1, JAK3 (Homo sapiens, UniProt P52333).
T1 construct: purchased Invitrogen
T1 sequence (P52333 1-1124): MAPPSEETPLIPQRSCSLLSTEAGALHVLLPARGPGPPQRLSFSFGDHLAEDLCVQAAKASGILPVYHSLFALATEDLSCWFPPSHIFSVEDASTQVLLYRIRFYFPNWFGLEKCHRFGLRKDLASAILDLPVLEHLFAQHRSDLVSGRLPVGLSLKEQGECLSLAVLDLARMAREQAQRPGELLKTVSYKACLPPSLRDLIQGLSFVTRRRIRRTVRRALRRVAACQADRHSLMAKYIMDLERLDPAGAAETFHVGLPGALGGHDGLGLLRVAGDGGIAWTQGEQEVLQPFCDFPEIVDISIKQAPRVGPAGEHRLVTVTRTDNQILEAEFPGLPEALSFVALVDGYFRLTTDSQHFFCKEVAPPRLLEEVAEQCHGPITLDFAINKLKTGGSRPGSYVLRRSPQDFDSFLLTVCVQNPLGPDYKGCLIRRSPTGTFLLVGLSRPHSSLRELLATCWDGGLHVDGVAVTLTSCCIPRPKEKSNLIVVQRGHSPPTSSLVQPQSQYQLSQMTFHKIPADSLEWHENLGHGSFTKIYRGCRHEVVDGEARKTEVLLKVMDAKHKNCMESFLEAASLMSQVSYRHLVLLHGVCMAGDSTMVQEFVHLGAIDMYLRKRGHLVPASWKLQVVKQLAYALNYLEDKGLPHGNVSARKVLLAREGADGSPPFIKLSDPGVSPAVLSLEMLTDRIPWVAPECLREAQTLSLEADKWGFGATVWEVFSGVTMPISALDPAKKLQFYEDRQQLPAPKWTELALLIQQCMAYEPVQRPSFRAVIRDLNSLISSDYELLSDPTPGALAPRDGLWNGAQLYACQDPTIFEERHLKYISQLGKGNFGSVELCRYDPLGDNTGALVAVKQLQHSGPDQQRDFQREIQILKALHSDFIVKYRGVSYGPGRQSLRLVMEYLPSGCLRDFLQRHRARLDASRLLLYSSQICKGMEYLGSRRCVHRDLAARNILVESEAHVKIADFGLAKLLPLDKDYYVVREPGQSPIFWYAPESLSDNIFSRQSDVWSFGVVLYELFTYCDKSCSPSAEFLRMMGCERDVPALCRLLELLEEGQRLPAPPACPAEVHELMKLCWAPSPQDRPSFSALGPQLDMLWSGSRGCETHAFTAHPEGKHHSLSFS
The experiment in a line: JAK3 enzyme inhibition test (LANCE method). The settings on record: 1 μM test compound; for inhibition at 1 µM: read-out: JAK3 enzyme inhibitory activity (%, 1 μM). The method in brief:
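TR-FRET (LANCE) read: 1 h room-temperature reaction, EDTA quench, Eu-anti-phosphotyrosine antibody, emission 665 nm after 340 nm excitation. Added solutions held 12 ng/mL JAK3, 300 nM ULight-JAK1 substrate and 15 μM ATP (pH 7.5 HEPES). Activity expressed against no-enzyme wells defined as full inhibition.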
In general terms: In TR-FRET formats the signal depends on donor and acceptor labels being close together.

The target of the next assay is T2, JAK1 (Homo sapiens, UniProt P23458).
T2 construct: purchased Invitrogen
The experiment in a line: JAK1 enzyme inhibition test (LANCE method). The settings on record: 1 μM test compound; for inhibition at 1 µM: read-out: JAK1 enzyme inhibitory activity (%, 1 μM). The method in brief: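 Inhibition expressed against no-enzyme wells (100% inhibition), from time-resolved fluorescence at 665 nm after Eu-anti-phosphotyrosine antibody/EDTA detection. Kinase reaction ran 1 h at room temperature, pH 7.5 HEPES buffer, ULight-JAK1 substrate and ATP diluted to 300 nM and 150 μM before addition.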

The target in a further assay is T3, JAK2 (Homo sapiens, UniProt O60674).
T3 construct: purchased Invitrogen
The experiment in a line: JAK2 enzyme inhibition test (LANCE method). The settings on record: 1 μM test compound; for inhibition at 1 µM: read-out: JAK2 enzyme inhibitory activity (%, 1 μM). The method in brief: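 TR-FRET (LANCE) read-out, ex 340/em 665 nm with 100 μs delay, after 1 hr room-temperature detection with europium anti-phosphotyrosine antibody and 20 mM EDTA. The preceding 1 hr kinase reaction combined JAK2, ULight-JAK1 substrate and ATP, added as 6 ng/mL, 300 nM and 45 μM solutions; enzyme-free wells defined 100% inhibition.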

Another assay addresses T4, TYK2 (Homo sapiens, UniProt P29597).
T4 construct: purchased Invitrogen
The experiment in a line: TYK2 enzyme inhibition test (LANCE method). The settings on record: 1 μM test compound; for inhibition at 1 µM: read-out: TYK2 enzyme inhibitory activity (%, 1 μM). The method in brief:
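TR-FRET (LANCE) readout: after 1 h room-temperature kinase reaction, EDTA plus 4 nM Eu-labelled anti-phosphotyrosine antibody added, signal at 665 nm (340 nm excitation). Reaction combined TYK2, ULight-JAK1 substrate and ATP, prepared at 375 ng/mL, 300 nM and 30 μM before addition, in pH 7.5 HEPES/MgCl2 buffer; enzyme-free wells define full inhibition.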

T4 sequence (P29597 whole entry): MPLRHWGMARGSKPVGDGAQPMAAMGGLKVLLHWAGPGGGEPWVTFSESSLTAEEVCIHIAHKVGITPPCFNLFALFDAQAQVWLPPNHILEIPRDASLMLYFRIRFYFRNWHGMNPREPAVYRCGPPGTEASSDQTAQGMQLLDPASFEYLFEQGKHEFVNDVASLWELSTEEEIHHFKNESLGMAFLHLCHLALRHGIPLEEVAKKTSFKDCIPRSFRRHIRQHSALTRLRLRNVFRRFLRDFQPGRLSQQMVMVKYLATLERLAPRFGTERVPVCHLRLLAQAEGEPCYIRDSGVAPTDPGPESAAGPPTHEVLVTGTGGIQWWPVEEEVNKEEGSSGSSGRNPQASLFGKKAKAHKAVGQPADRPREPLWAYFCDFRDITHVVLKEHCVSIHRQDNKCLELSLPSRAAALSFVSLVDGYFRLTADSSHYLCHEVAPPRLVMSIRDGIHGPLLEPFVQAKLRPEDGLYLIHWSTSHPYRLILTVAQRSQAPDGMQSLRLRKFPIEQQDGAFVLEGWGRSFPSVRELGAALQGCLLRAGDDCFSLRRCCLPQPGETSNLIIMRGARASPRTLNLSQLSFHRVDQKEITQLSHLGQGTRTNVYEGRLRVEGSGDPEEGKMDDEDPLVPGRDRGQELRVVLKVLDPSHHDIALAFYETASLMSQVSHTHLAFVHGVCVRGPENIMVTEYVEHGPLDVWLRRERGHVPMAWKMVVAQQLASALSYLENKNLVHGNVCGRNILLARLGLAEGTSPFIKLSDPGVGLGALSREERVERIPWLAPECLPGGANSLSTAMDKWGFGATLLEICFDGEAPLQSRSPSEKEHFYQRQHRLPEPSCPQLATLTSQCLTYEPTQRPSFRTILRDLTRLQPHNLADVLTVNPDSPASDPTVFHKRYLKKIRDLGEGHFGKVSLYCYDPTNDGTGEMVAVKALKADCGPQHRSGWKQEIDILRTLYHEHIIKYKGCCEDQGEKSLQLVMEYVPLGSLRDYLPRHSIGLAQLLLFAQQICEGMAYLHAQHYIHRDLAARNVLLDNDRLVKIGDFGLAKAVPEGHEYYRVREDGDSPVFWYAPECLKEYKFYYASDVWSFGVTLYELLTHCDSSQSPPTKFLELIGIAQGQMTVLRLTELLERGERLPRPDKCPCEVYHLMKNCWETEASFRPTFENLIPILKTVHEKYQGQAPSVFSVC
T3 sequence (O60674 whole entry): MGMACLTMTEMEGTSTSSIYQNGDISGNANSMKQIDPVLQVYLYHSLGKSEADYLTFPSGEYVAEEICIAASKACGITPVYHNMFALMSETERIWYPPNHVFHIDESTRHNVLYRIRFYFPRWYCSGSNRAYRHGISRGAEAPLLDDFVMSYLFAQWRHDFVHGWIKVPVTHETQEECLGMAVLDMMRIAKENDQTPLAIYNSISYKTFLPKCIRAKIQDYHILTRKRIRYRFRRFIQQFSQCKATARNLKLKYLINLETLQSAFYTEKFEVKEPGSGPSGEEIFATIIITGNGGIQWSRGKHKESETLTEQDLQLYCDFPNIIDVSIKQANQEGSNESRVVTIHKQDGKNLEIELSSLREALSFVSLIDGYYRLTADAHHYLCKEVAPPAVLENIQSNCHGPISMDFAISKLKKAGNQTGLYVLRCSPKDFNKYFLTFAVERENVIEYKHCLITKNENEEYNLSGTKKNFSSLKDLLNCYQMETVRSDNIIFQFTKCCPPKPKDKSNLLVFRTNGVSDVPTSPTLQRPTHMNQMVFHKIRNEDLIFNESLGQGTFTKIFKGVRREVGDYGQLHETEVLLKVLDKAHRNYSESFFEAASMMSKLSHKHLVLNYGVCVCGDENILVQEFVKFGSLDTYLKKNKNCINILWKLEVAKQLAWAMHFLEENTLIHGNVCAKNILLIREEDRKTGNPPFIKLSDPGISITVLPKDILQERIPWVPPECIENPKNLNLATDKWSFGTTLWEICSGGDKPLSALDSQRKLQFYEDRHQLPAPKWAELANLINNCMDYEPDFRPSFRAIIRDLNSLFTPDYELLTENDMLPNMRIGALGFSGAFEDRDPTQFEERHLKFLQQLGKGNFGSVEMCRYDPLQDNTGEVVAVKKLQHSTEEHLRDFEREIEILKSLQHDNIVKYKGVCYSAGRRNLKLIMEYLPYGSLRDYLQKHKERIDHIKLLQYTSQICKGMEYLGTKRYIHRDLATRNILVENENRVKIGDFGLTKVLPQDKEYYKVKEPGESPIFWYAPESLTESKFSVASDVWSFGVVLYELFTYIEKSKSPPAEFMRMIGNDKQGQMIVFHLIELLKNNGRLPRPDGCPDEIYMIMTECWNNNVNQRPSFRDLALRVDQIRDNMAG
T2 sequence (P23458 whole entry): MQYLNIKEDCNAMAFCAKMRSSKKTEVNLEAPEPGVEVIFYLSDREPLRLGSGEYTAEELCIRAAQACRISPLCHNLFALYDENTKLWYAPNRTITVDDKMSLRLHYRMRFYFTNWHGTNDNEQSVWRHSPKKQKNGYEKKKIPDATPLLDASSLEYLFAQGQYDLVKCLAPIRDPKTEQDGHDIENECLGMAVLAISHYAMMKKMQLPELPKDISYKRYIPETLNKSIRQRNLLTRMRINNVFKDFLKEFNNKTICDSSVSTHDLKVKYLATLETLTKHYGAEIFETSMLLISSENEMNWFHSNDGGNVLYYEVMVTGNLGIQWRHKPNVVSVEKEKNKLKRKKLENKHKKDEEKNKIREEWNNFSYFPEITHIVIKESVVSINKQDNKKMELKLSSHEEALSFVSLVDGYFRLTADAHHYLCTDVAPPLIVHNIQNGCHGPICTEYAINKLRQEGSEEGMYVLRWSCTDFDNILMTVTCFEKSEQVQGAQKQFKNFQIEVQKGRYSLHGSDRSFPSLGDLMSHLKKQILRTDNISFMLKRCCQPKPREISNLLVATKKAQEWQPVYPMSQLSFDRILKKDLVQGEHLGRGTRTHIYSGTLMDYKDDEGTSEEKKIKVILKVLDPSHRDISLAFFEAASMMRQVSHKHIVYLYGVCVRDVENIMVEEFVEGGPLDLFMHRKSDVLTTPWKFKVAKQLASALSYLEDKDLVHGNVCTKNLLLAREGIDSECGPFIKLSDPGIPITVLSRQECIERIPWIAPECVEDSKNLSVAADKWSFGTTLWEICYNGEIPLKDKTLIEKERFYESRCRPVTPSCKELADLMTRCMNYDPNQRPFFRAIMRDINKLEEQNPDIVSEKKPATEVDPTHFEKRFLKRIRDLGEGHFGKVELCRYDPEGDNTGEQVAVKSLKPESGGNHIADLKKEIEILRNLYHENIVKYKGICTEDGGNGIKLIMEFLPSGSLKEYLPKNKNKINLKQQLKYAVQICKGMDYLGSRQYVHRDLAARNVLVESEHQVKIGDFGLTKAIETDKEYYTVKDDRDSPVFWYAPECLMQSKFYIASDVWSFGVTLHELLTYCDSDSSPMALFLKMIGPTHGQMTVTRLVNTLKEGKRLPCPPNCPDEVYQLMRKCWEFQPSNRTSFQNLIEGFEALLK

Consider `CC(n1cc(-c2cc(N3CCOCC3)n(C)n2)c2[nH]nc(N)c2c1=O)C(C)(C)O` (stereo not shown) [Example 99, 3-amino-5-(3-hydroxy-3-methylbutan-2-yl)-7-(1-methyl-5-(morpholin-4-yl)-1H-pyrazol-3-yl)-1,5-dihydro-4H-pyrazolo[4,3-c]pyridin-4-one], for which the inhibition at 1 µM at JAK3 worked out at 97%; on JAK1, 83%; on JAK2, 85%; on TYK2 it was 99%.

`CN(C[C@H]1CCCN1c1cc(-c2cn(C(C3CC3)C3CC3)c(=O)c3c(N)n[nH]c23)nn1C)S(C)(=O)=O` [Example 176, N-(((2R)-1-(3-(3-amino-5-(dicyclopropylmethyl)-4-oxo-4,5-dihydro-1H-pyrazolo[4,3-c]pyridin-7-yl)-1-methyl-1H-pyrazol-5-yl)pyrrolidin-2-yl)methyl)-N-methylmethanesulfonamide]: the inhibition at 1 µM at JAK3 came to 99%; at JAK1, 97%; on JAK2, 98%; on TYK2, 98%.

Regarding `COC1(c2cc(-c3cn(C(C#N)C(C)C)c(=O)c4c(N)n[nH]c34)nn2C)CCC(F)(F)CC1` (stereo not shown) [Example 138, 2-(3-amino-7-(5-(4,4-difluoro-1-methoxycyclohexyl)-1-methyl-1H-pyrazol-3-yl)-4-oxo-1,4-dihydro-5H-pyrazolo[4,3-c]pyridin-5-yl)-3-methylbutanenitrile], at JAK3 (1 µM), the “JAK3 enzyme inhibitory activity (%, 1 μM)” value came to 99%. For the same molecule, the “JAK1 enzyme inhibitory activity (%, 1 μM)” value at JAK1 is listed as 96%. The “JAK2 enzyme inhibitory activity (%, 1 μM)” value on JAK2 (1 µM) was found to be 99%. The “TYK2 enzyme inhibitory activity (%, 1 μM)” value at TYK2 was 99%.

`Cn1nc(-c2cn(C(C3CC3)C3CC3)c(=O)c3c(N)n[nH]c23)cc1N1CCS(=O)(=O)C(C)(C)C1` [Example 88, 3-amino-5-(dicyclopropylmethyl)-7-(5-(2,2-dimethyl-1,1-dioxidothiomorpholin-4-yl)-1-methyl-1H-pyrazol-3-yl)-1,5-dihydro-4H-pyrazolo[4,3-c]pyridin-4-one]: the inhibition at 1 µM was determined as 99% on JAK3, 99% at JAK1, 100% at JAK2 and 99% at TYK2.

Consider `Cn1nc(-c2cn(-c3c(F)cccc3C#N)c(=O)c3c(N)n[nH]c23)cc1C1CCOCC1` [Example 69, 2-(3-amino-7-(1-methyl-5-(tetrahydro-2H-pyran-4-yl)-1H-pyrazol-3-yl)-4-oxo-1,4-dihydro-5H-pyrazolo[4,3-c]pyridin-5-yl)-3-fluorobenzonitrile], for which the inhibition at 1 µM was found to be 98% at JAK3, 97% on JAK1, 96% at JAK2 and 99% at TYK2.

Take `CC(C)[C@H](C)n1cc(-c2cc(N3CCN4CCCC4C3)n(C)n2)c2[nH]nc(N)c2c1=O` (stereo partly drawn) [Example 32, 3-amino-7-(5-(hexahydropyrrolo[1,2-a]pyrazin-2 (H)-yl)-1-methyl-1H-pyrazol-3-yl)-5-((2S)-3-methylbutan-2-yl)-1,5-dihydro-4H-pyrazolo[4,3-c]pyridin-4-one]: the inhibition at 1 µM on JAK3 came to 99%; on JAK1 it was 96%; at JAK2, 98%; on TYK2 it was 99%.

With `COC1(c2cc(-c3cn([C@@H](C)C(C)C)c(=O)c4c(N)n[nH]c34)nn2C)CN(S(=O)(=O)C(C)C)C1` [Example 136, 3-amino-7-(5-(1-(isopropylsulfonyl)-3-methoxyazetidin-3-yl)-1-methyl-1H-pyrazol-3-yl)-5-((2S)-3-methylbutan-2-yl)-1,5-dihydro-4H-pyrazolo[4,3-c]pyridin-4-one], the inhibition at 1 µM on JAK3 stood at 98%; on JAK1 it was 80%; at JAK2, 98%; on TYK2 it was 100%.

Turning to `CC1CN(c2cc(-c3cn([C@@H](C)C(C)C)c(=O)c4c(N)n[nH]c34)nn2C)CCO1` (stereo partly drawn) [Example 59, 3-amino-5-((2S)-3-methylbutan-2-yl)-7-(1-methyl-5-(2-methylmorpholin-4-yl)-1H-pyrazol-3-yl)-1,5-dihydro-4H-pyrazolo[4,3-c]pyridin-4-one], the “JAK3 enzyme inhibitory activity (%, 1 μM)” value on JAK3 is 99%. Moreover, the “JAK1 enzyme inhibitory activity (%, 1 μM)” value on JAK1 came to 97%. In addition, the “JAK2 enzyme inhibitory activity (%, 1 μM)” value on JAK2 is on record as 98%. Also, on TYK2, the “TYK2 enzyme inhibitory activity (%, 1 μM)” value was determined as 100%.

On to `CC(C)C(C#N)n1cc(-c2cc(N3CCOCC3)n(C)n2)c2[nH]nc(N)c2c1=O` (racemic) [Example 112, 2-(3-amino-7-(1-methyl-5-(morpholin-4-yl)-1H-pyrazol-3-yl)-4-oxo-1,4-dihydro-5H-pyrazolo[4,3-c]pyridin-5-yl)-3-methylbutanenitrile], for which the inhibition at 1 µM turned out to be 99% on JAK3, 98% on JAK1, 98% on JAK2 and 100% on TYK2.

`CC(C)[C@H](C)n1cc(-c2cc(N(C)C(C)C)n(C)n2)c2[nH]nc(N)c2c1=O` [Example 101, 3-amino-7-(5-(isopropyl(methyl)amino)-1-methyl-1H-pyrazol-3-yl)-5-((2S)-3-methylbutan-2-yl)-1,5-dihydro-4H-pyrazolo[4,3-c]pyridin-4-one]: the inhibition at 1 µM at JAK3 stood at 99%; at JAK1, 96%; at JAK2, 97%; at TYK2 it was 100%.

`CC(C)[C@H](C)n1cc(-c2cc(N3CCCC3CN(C)C)n(C)n2)c2[nH]nc(N)c2c1=O` (stereo partly drawn) [Example 104, 3-amino-7-(5-(2-((dimethylamino)methyl)pyrrolidin-1-yl)-1-methyl-1H-pyrazol-3-yl)-5-((2S)-3-methylbutan-2-yl)-1,5-dihydro-4H-pyrazolo[4,3-c]pyridin-4-one]: the “JAK3 enzyme inhibitory activity (%, 1 μM)” value at JAK3 (1 µM) came to 98%. In addition, the “JAK1 enzyme inhibitory activity (%, 1 μM)” value at JAK1 was found to be 72%. Besides, the “JAK2 enzyme inhibitory activity (%, 1 μM)” value at JAK2 (1 µM) is 96%. In addition, the “TYK2 enzyme inhibitory activity (%, 1 μM)” value at TYK2 amounted to 100%.

For the molecule `Cn1nc(-c2cn(C(C3CC3)C3CC3)c(=O)c3c(N)n[nH]c23)cc1N1CCC[C@@H]1CO` [Example 157, 3-amino-5-(dicyclopropylmethyl)-7-(5-((2R)-2-(hydroxymethyl)pyrrolidin-1-yl)-1-methyl-1H-pyrazol-3-yl)-1,5-dihydro-4H-pyrazolo[4,3-c]pyridin-4-one], the inhibition at 1 µM is 100% at JAK3, 99% on JAK1, 99% at JAK2 and 101% on TYK2.

With `C[C@H](C1CC1)n1cc(-c2cc(C(C)(C)O)n(C)n2)c2[nH]nc(N)c2c1=O` [Example 91, 3-amino-5-((1R)-1-cyclopropylethyl)-7-(5-(2-hydroxypropan-2-yl)-1-methyl-1H-pyrazol-3-yl)-1,5-dihydro-4H-pyrazolo[4,3-c]pyridin-4-one], the inhibition at 1 µM was 97% on JAK3, 96% at JAK1, 88% at JAK2 and 99% at TYK2.
